Data from patent US20140158116A1, “INHIBITING TRPA1 FOR THE TREATMENT OF ASTHMA” (Cubist Pharmaceuticals, Inc., priority 2012, published 2014).

Columns and labels:
[1] = test system: CFA-induced cold allodynia; experiment: Complete Freund's Adjuvant (CFA) cold allodynia rodent pain model; type: in vivo; settings: vehicle 19.8
Experimental: The compound of Formula (Ia) is also active in rodent models of pain in vivo induced by cold allodynia following chronic Complete Freund's Adjuvant-induced inflammation, as described in Example 6. […] The compound of Formula (Ia), the comparator compound of Formula (II) and ketoprofen were tested by the CFA-induced pain test method reported in del Camino et al., J. Neurosci., 30(45):15165-15174, incorporated herein by reference in its entirety. Briefly, the hind paw was sensitized to cold temperature (allodynic), by administering 0.1 mL of Complete Freund's Adjuvant (CFA) to the left hind paw. 2-3 days later, the time taken for the animal to lift its CFA-injected paw was recorded compared to its un-injected normal right hind paw. […] To avoid tissue damage the maximum cut-off time was 5 minutes. Animals that were allodynic (average PWL to the first three pain behaviors <150 seconds for the CFA-injected hind paw: ˜≧50% difference between the normal and CFA-injected paw) were included in the study and subsequently randomized across treatment groups. The following day, the animals were dosed under blinded conditions. Following the 1-2 hour pre-treatment time, the post-dose PWL readings were again taken. The efficacy of the drug treatment was assessed by comparing the PWL in the drug treatment animals to those animals that received the vehicle.

[2] = biological target: T1, hTRPV3 (Homo sapiens, UniProt Q8NET8); experiment: Patch clamp selectivity, hTRPV3; type: cell-based
T1 sequence (Q8NET8 1-790): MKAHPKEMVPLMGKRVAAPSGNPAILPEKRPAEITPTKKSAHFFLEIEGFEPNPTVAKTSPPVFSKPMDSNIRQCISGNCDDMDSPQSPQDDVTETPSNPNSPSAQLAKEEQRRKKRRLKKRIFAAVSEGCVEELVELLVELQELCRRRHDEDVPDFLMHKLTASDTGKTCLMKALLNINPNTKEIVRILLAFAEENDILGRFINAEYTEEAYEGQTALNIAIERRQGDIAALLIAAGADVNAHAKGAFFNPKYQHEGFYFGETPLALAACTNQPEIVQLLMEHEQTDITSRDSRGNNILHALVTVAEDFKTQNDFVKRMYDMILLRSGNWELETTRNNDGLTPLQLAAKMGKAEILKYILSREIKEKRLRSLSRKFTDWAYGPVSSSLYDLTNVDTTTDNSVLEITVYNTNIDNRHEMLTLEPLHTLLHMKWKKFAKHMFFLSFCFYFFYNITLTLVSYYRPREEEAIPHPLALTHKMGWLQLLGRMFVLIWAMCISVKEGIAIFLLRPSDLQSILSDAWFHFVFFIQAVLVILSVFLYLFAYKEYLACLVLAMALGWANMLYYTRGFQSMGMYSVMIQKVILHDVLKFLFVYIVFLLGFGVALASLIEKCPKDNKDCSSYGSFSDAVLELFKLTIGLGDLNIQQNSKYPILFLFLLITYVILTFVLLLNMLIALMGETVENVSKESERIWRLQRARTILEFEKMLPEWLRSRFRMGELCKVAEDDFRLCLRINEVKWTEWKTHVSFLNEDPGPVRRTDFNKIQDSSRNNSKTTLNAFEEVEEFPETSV
Experimental: Data for TRPA1 inhibition and the selectivity of TRPA1 inhibition was obtained by this method for the compound of Formula (Ia) and included in Table 1 and Table 2. All currents were recorded in whole-cell configuration using EPC-9 and EPC-10 amplifiers and Patchmaster software (HEKA). […] The standard pipette solution consisted of 140 mM CsAsp, 10 mM EGTA, 10 mM HEPES, 2.27 mM MgCl2, 1.91 mM CaCl2, 4 mM MgATP, and 0.1-0.3 mM Na2GTP, with pH adjusted to 7.2 with CsOH. In addition, a solution containing 145 mM CsCl, 10 mM HEPES, 10 mM EGTA and 1 mM MgCl2 (pH 7.2 adjusted with CsOH) can be used. The standard bath solution contained 150 mM NaCl, 10 mM HEPES, 10 mM glucose, 4.5 mM KCl, 1 mM EGTA, 3 mM MgCl2, with pH adjusted to 7.4 with NaOH. In some instances, 2 mM CaCl2 was added in place of EGTA and the concentration of MgCl2 was reduced to 1 mM.
Data were collected either by continuous recordings at −60 mV or by applying voltage ramps from a holding potential of 0 mV every 4 s. […] Inward and outward currents were analyzed from the ramps at −80 and 80 mV, respectively. […]
Solutions were switched using a gravity-fed continuous focal perfusion system. […] Temperatures were confirmed using a thermistor (Warner Instruments, TA-29), with temperatures at the recorded cell estimated to be within +/−2° C. of those reported. […]

For `C[C@H]1CCCN1c1ncc(-c2cccc(NC(=O)Cn3cnc4c3c(=O)n(C)c(=O)n4C)n2)cn1` [Formula (Ia)], the “Change in Paw Withdrawal Latency” value ([1]; 1 mg/kg i.p., cold plate) was 38.4, the “Change in Paw Withdrawal Latency” value ([1]; 5 mg/kg i.p.) was 45.0 and the “Change in Paw Withdrawal Latency” value ([1]; 10 mg/kg i.p.) was 117.6. The “Change in Paw Withdrawal Latency” value ([1]; 30 mg/kg i.p.) was 134.4, the “Change in Paw Withdrawal Latency” value ([1]; 50 mg/kg i.p.) was 177.8 and the “Fold Selectivity Compared to TRPA1” value [2] was >300 fold. The IC50 ([2]; 30 micromolar 2-APB, Inward (−80 mV)) was > 32 µM.
